{
  "source": "patent US7964613B2",
  "about": "(Asahi Kasei Pharma Corporation, priority 2007, dated 2011)",
  "key": {"intraocular pressure [1]": {"system": "intraocular pressure", "experiment": "Rabbit intraocular pressure reduction enhancing action, Test Example 7-2 (combination use with timolol maleate)", "format": "in vivo, Japanese white rabbit", "details": "Table 6; 19-1 compound 0.01 weight % aqueous solution 50 μL, Timoptol 50 μL; difference relative to control group at 1, 2, 4 hours; 12 rabbits", "experimental": "As a test compound, the 19-1 compound was dissolved in physiological saline, and the solution was neutralized by addition of sodium hydroxide (pH 7.0 to 8.0) to prepare a 0.01 weight % aqueous solution (19-1 compound aqueous solution). As a drug for combination use, timolol maleate (trade name: Timoptol, Santen Pharmaceutical) was used as an adrenergic receptor β blocker, as the marketed formulation as it was.\nA Japanese white rabbit having a body weight of about 2 kg was placed in a positioner and naturalized for one week before the experiment. An opthalmologic local anesthesant (Benoxil) was administered to both eyes, and then intraocular pressure before instillation was measured by using a tonometer (Classic 30, Solan). […] The intraocular pressure thereafter was measured for each group 1, 2 and 4 hours after the second administration of the test compound, and the difference of the measured values at each measurement time for the each group and the control group was considered an intraocular pressure reduction value of each group. The largest difference of the intraocular pressure values relative to the control group among those of the measured values of the measurement times was considered the maximum intraocular pressure reduction value (max ? IOP) of each drug group."}, "intraocular pressure [2]": {"system": "intraocular pressure", "experiment": "Rabbit intraocular pressure reduction enhancing action, Test Example 7-1 (combination use)", "format": "in vivo, Japanese white rabbit", "details": "19-1 compound 0.01 weight % aqueous solution 50 μL, left-right eye difference at 2, 4, 6 hours, six rabbits", "experimental": "However, the effect is not limited to the 19-1 compound, and the ophthalmic solution concentration of the 19-1 compound is not limited to those used in this test example. Moreover, as for the test compound used for combination use, similar effect can be obtained also with the compounds of the present invention represented with the example numbers mentioned in Test Example 3.\nAs a test compound, the 19-1 compound was dissolved in physiological saline, and the solution was neutralized by addition of sodium hydroxide (pH 7.0 to 8.0) to prepare a 0.01 weight % aqueous solution (19-1 compound aqueous solution). As the drugs for combination use, isopropyl unoprostone (trade name: Rescula, Santen Pharmaceutical) was used as a prostaglandin-related drug, and brinzolamide hydrochloride (trade name: Azopt, Alcon Japan) was used as […], as the marketed formulations as they were.\nA Japanese white rabbit having a body weight of about 2 kg was placed in a positioner and naturalized for one week before the experiment. An opthalmologic local anesthesant (Benoxil) was administered to both eyes, and then intraocular pressure before instillation was measured by using a tonometer (Classic 30, Solan). A test aqueous solution or the drug for combination use was administered to the left eye, and the right eye was not treated (control eye). The test groups consisted of (1) control group, (2) group instilled only with the 19-1 compound aqueous solution (single drug group 1), (3) group instilled only with the drug for combination use (single drug group 2), and (4) group instilled with the drug for combination use and the 19-1 compound aqueous solution (combination use group), and six rabbits were used for each group. As for the rabbits of these groups, 50 μL of physiological saline was first instilled to the control group, single drug group 1, and single drug group 2, and the drug for combination use was first instilled in the same volume to the combination use group. […] The intraocular pressure thereafter was measured for each group 2, 4 and 6 hours after the second administration of the test compound, and the difference of the measured values for the left and right eyes at each measurement time was considered an intraocular pressure reduction value of each group. The largest difference of the intraocular pressure values for the left and right eyes among those of the measured values of the measurement times was considered the maximum intraocular pressure reduction value (max ? IOP) of each drug group."}, "intraocular pressure [3]": {"system": "intraocular pressure", "experiment": "Intraocular pressure reduction enhancing action in monkey", "format": "in vivo", "details": "cynomolgus monkey, 0.01 weight % aqueous solution, 30 μL", "experimental": "Moreover, as for the test compound used for combination use, similar effect can be obtained also with the compounds of the present invention represented with the example numbers mentioned in Test Example 3. The test is performed by using cynomolgus monkeys sufficiently naturalized for the operation of fixation on a monkey chair and ophathalmotonometry.\nAs the test compound, the 19-1 compound is dissolved in physiological saline, and the solution is neutralized by addition of sodium hydroxide (pH 7.0 to 8.0) to prepare a 0.01 weight % aqueous solution (19-1 compound aqueous solution). As a drug for combination use, latanoprost (trade name: Xalatan, Pfizer) is used as the marketed formulation per se. The test aqueous solution or the drug for combination use is instilled to the left eye, and the right eye is not treated (control eye). […] After initial intraocular pressure values of the monkeys are measured for each group, 30 μL of physiological saline is instilled to the control group, single drug group 1, and single drug group 2, and latanoprost is instilled in the same volume to the combination use group. […] Then, the intraocular pressure is measured over time for each group."}},
  "data": [
    {"compound": "N[C@H]1CCN(S(=O)(=O)c2cccc3cncc(Cl)c23)C1", "note": "[Example 19-1, (S)-3-Amino-1-(4-chloro-5-isoquinolinesulfonyl)pyrrolidine]", "values": [
      {"measurement": "Max IOP (maximum intraocular pressure reduction value)", "setting": "intraocular pressure [1]", "result": 4.1, "unit": "mmHg"},
      {"measurement": "Max IOP (maximum intraocular pressure reduction value)", "setting": "intraocular pressure [2]; Table 4, Azopt 50 μL", "result": 4.3, "unit": "mmHg"},
      {"measurement": "Max IOP (maximum intraocular pressure reduction value)", "setting": "intraocular pressure [2]; Table 5, Rescula 50 μL", "result": 4.3, "unit": "mmHg"},
      {"measurement": "intraocular pressure reducing action in single drug group 1", "setting": "intraocular pressure [3]", "result": "exceeding that of the control group"}
    ]}
  ]
}
